{"source": "patent US6780421B1", "about": "“Adjuvant for a vaccine composition” (priority 1997, dated 2004)", "key": {"[1]": {"system": "strain A/Singapore monovalent influenza vaccine", "experiment": "Induction of antibody isotypes (ELISA) in elderly mice", "type": "in vivo, 20 to 22-month-old mice", "details": "primary and secondary response", "procedure": "The same experiment is carried out exactly as in Example 12 but, in this instance, the mice tested are 20 to 22-month-old mice which are more difficult to stimulate."}, "[2]": {"system": "strain A/Singapore monovalent influenza vaccine", "experiment": "Immune response (HAI) as a function of the dose of DC chol", "type": "in vivo, female Balb/c mice", "details": "DC chol/DOPC liposomes, injected D0 and D28, sera D42"}, "[3]": {"system": "strain A/Singapore monovalent influenza vaccine", "experiment": "Induction of antibody isotypes IgG1 and IgG2 (ELISA) in adult mice", "type": "in vivo, 8- to 10-week-old female BALB/c adult mice", "details": "400 μg of DC chol with DOPC"}, "[4]": {"system": "trivalent influenza vaccine comprising strain A/Texas, strain B/Panama and strain A/Beijing", "experiment": "Tests with a trivalent influenza vaccine", "type": "in vivo"}, "[5]": {"system": "strain A/Singapore monovalent influenza vaccine", "experiment": "Immunization by combined subcutaneous and intranasal administration", "type": "in vivo, BALB/c mice", "procedure": "Two groups of 4 BALB/c mice are immunized twice with an interval of 4 weeks with, on each occasion, the following vaccine compositions:\nGroup 3 (G3):—a vaccine composition of 300 μl injected subcutaneously comprising 4 μg of HA (in the form of strain A/Singapore monovalent influenza vaccine) combined with […] of DC chol (in the form of DC chol/DOPC liposomes), and\na vaccine composition of 50 μl administered intranasally comprising 0.25 μg of HA (in the form of strain A/Singapore monovalent influenza vaccine) combined with 6 μg of DC chol (in the form of DC chol/DOPC liposomes),\nGroup 4 (G4):—a vaccine composition of 300 μl injected subcutaneously comprising 4 μg of HA combined with 200 μg of DC chol, and\na vaccine composition of 50 μl administered intranasally comprising 0.25 μg of HA combined with 200 μg of DC chol.\nThe sera of the immunized mice are sampled 3 weeks after the booster administration and, for each mouse, the level of neutralizing antibodies is assayed by the HAI haemagglutination inhibition technique."}, "[6]": {"system": "influenza virus (Strain A/Singapore)", "experiment": "Anti-HA antibody titration by inhibition of influenza virus-induced haemagglutination after subcutaneous immunization", "type": "in vivo, Balb/c mice", "details": "5 μg of HA, in comparison with mice which received the vaccine without adjuvant (Group A)", "procedure": "5 groups of 4 Balb/c mice are immunized by 3 subcutaneous injections performed on D0, D21 and D36 with the following vaccine compositions:\nGroup A: 0.3 ml of diluted strain A/Singapore monovalent influenza vaccine containing 5 μg of HA in 0.3 ml of PBS,\nGroup B: 0.3 ml of vaccine composition obtained according to Example 2,\nGroup C: 0.3 ml of vaccine composition obtained according to Example 3,\nGroup D: 0.3 ml of vaccine composition obtained according to Example 6,\nGroup E: 0.3 ml of vaccine composition obtained according to Example 7.\nIn order to perform the assays for neutralizing antibodies, the sera of mice are sampled on D21, D36 and […], and the titration of anti-HA antibodies is performed by means of the technique of inhibition of influenza virus-induced haemagglutination.\nThe titres of neutralizing antibodies in the mouse sera are presented in the form of log2 of the highest dilution inducing haemagglutination inhibition."}}, "data": [{"compound": "CC(C)CCC[C@@H](C)[C@H]1CC[C@H]2[C@@H]3CC=C4C[C@@H](OC(=O)NCCN(C)C)CC[C@]4(C)[C@H]3CC[C@]12C", "note": "[DC chol, 3β-[N-(N′,N′-dimethylaminoethane)-carbamoyl]cholesterol]", "values": [{"measurement": "adjuvant effect on IgG1 and IgG2 produced (ELISA), in particular IgG2a", "setting": "[1]", "value": "adjuvant effect"}, {"measurement": "dose of DC chol at which the maximum benefit of the adjuvant effect is obtained (HAI titre)", "setting": "[2]", "value": "above 100 μg of DC chol/dose"}, {"measurement": "IgG2a produced (ELISA)", "setting": "[3]", "value": "large increase"}, {"measurement": "adjuvant effect on IgG1 and IgG2 produced (ELISA)", "setting": "[3]; primary and secondary response, in comparison to aluminium hydroxide", "value": "adjuvant effect"}, {"measurement": "adjuvant power with trivalent influenza vaccine", "setting": "[4]", "value": "adjuvant power"}, {"measurement": "number of cells secreting IgG and IgA in the lungs (ELISPOT): dose effect", "setting": "[5]; 6 versus 200 μg of DC chol", "value": "identical dose effect"}, {"measurement": "ratio of specific IgG (or IgA) to total IgG (or IgA) in nasopharyngeal lavage fluids: dose effect", "setting": "[5]; 6 versus 200 μg of DC chol", "value": "identical dose effect"}, {"measurement": "serum IgG measured by ELISA: dose effect", "setting": "[5]; 6 versus 200 μg of DC chol", "value": "identical dose effect"}, {"measurement": "level of neutralizing antibodies (HAI): effect of the dose of DC chol", "setting": "[5]; dose of DC chol from 6 to 200 μg, mixed subcutaneous and intranasal", "value": "enables the immune response to be increased"}, {"measurement": "level of neutralizing antibodies (HAI): adjuvant effect", "setting": "[5]; mixed subcutaneous and intranasal administration", "value": "adjuvant effect"}, {"measurement": "level of anti-HA antibodies (HAI)", "setting": "[6]", "value": "markedly higher"}]}]}
